Drawing on patent US20140303164A1, “THERAPEUTIC COMPOUNDS” (Gilead Sciences, Inc., priority 2013, published 2014), this text covers CC50 and inhibition for 13 compounds.

Data set [1] can be described thus: Test B: Cytotoxicity Assay. It counts as cell-based. To be noted: human, uninfected MT-4 cells, same protocol as Test A. The method, boiled down: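 Uninfected MT-4 cells (2000 per well) incubated with diluted compound at 37° C. for 5 days, following the antiviral protocol without HIV-IIIb.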
Another data set concerns HIV-IIIb. Nature of the data set: Test A: Antiviral Assay in MT4 Cells. It counts as cell-based, HIV-1. Conditions: Human immunodeficiency virus 1, IIIB, MT4, 120 h; for inhibition at 0.2 µM: read-out: % inhibition at 0.2 μM; for inhibition at 2 µM: read-out: % inhibition at 2 μM. The procedure: Test A: Antiviral Assay in MT4 Cells
MT-4 cells were next mixed with HIV-IIIb at an m.o.i of 0.003 for 1 hour, after which time 35 μL of virus/cell mixture (2000 cells) was immediately added to each well containing 40 μL of diluted compound. The plates were then incubated at 37° C. for 5 days. […] Cell lysis was carried out by incubating at room temperature for 10 min and then chemiluminescence was read.

A word on the CC50: it is the concentration at which the toxic effect on the cells reaches its halfway point. A lower CC50 goes with greater toxicity to the cells. What is called inhibition is the percentage by which the read-out fell short of the control.

For `Cn1nc(NS(C)(=O)=O)c2c(Cl)ccc(-c3ccc(C#CC(C)(C)O)nc3[C@H](Cc3cc(F)cc(F)c3)NC(=O)Cn3nc(C(F)(F)F)c4c3CCCC4)c21` [Compound 124, (S)—N-(1-(3-(4 chloro-1-methyl-3-(methylsulfonamido)-1H-indazol-7-yl)-6-(3-hydroxy-3-methylbut-1-yn-1-yl)pyridin-2-yl)-2-(3,5-difluorophenyl)ethyl)-2-(3-(trifluoromethyl)-4,5,6,7-tetrahydro-1H-indazol-1-yl)acetamide], the midpoint of cytotoxicity in data set [1], the CC50 at 5 days, lay at 9.14 µM. In addition, in the data set with HIV-IIIb, the inhibition at 0.2 µM stood at 97% and the inhibition at 2 µM worked out at 97%.
Compound `Cn1nc(NS(C)(=O)=O)c2c(Cl)ccc(-c3ccc(C#CC(C)(C)O)nc3[C@H](Cc3cc(F)cc(F)c3)NC(=O)Cc3ccc4ccccc4c3)c21` [Compound 200, (S)—N-(1-(3-(4 chloro-1-methyl-3-(methylsulfonamido)-1H-indazol-7-yl)-6-(3-hydroxy-3-methylbut-1-yn-1-yl)pyridin-2-yl)-2-(3,5-difluorophenyl)ethyl)-2-(naphthalen-2-yl)acetamide] had a cytotoxic concentration (CC50) at 5 days in data set [1] of 12.2 µM. Besides, in the data set with HIV-IIIb, the inhibition at 0.2 µM came to 89% and the inhibition at 2 µM amounted to 90%.
The corresponding values for `Cn1nc(NS(C)(=O)=O)c2c(Cl)ccc(-c3ccc(C#CC(C)(C)O)nc3[C@H](Cc3cc(F)cc(F)c3)NC(=O)Cc3noc4ccccc34)c21` [Compound 198, (S)-2-(benzo[d]isoxazol-3-yl)-N-(1-(3-(4 chloro-1-methyl-3-(methylsulfonamido)-1H-indazol-7-yl)-6-(3-hydroxy-3-methylbut-1-yn-1-yl)pyridin-2-yl)-2-(3,5-difluorophenyl)ethyl)acetamide] are 23.7 µM, 64% and 98%.
For `CNc1cc(-c2ccc(Cl)c3c(NS(C)(=O)=O)nn(C)c23)c([C@H](Cc2cc(F)cc(F)c2)NC(=O)Cn2nc(C(F)F)c3c2C(F)(F)[C@@H]2C[C@H]32)nc1C#CC(C)(C)O` [Compound 182L, N—((S)-1-(3-(4-chloro-1-methyl-3-(methylsulfonamido)-1H-indazol-7-yl)-6-(3-hydroxy-3-methylbut-1-yn-1-yl)-5-(methylamino)pyridin-2-yl)-2-(3,5-difluorophenyl)ethyl)-2-((3b-S,4aR)-3-(difluoromethyl)-5,5-difluoro-3b,4,4a,5-tetrahydro-1H-cyclopropa[3,4]cyclopenta[1,2-c]pyrazol-1-yl)acetamide], in that order: 9.83 µM, 100% and 100%.
As to `CC(C)(O)C#Cc1ccc(-c2ccc(Cl)c3c(NS(C)(=O)=O)n[nH]c23)c([C@H](Cc2cc(F)cc(F)c2)NC(=O)Cn2nc(C(F)(F)F)c3c2C(F)(F)[C@@H]2C[C@H]32)n1` [Compound 109, N—((S)-1-(3-(4-chloro-3-(methylsulfonamido)-1H-indazol-7-yl)-6-(3-hydroxy-3-methylbut-1-yn-1-yl)pyridin-2-yl)-2-(3,5-difluorophenyl)ethyl)-2-((3b-S,4aR)-5,5-difluoro-3-(trifluoromethyl)-3b,4,4a,5-tetrahydro-1H-cyclopropa[3,4]cyclopenta[1,2-c]pyrazol-1-yl)acetamide], the CC50 at 5 days in data set [1] came to 29.6 µM. In the data set on HIV-IIIb, the inhibition at 0.2 µM was found to be 97% and the inhibition at 2 µM turned out to be 97%.
Consider `Cn1nc(NS(C)(=O)=O)c2cccc(-c3cnc(C#CC(C)(C)O)nc3[C@H](Cc3cc(F)cc(F)c3)NC(=O)Cn3nc(C(F)(F)F)c4c3C(F)(F)[C@@H]3C[C@H]43)c21` [Compound 41, 2-((3bS,4aR)-5,5-difluoro-3-(trifluoromethyl)-3b,4,4a,5-tetrahydro-1H-cyclopropa[3,4]cyclopenta[1,2-c]pyrazol-1-yl)-N—((S)-2-(3,5-difluorophenyl)-1-(2-(3-hydroxy-3-methylbut-1-yn-1-yl)-5-(1-methyl-3-(methylsulfonamido)-1H-indazol-7-yl)pyrimidin-4-yl)ethyl)acetamide], for which it took 7.63 µM to reach half-maximal cytotoxicity in data set [1] (CC50 at 5 days). In the data set on HIV-IIIb, the inhibition at 0.2 µM turned out to be 98% and the inhibition at 2 µM worked out at 98%.
The compound `Cn1nc(NS(C)(=O)=O)c2c(Cl)ccc(-c3ccc(-c4ncccn4)nc3[C@H](Cc3cc(F)cc(F)c3)NC(=O)Cn3nc(C(F)(F)F)c4c3C(F)(F)[C@@H]3C[C@H]43)c21` [Compound 176, N—((S)-1-(3-(4-chloro-1-methyl-3-(methylsulfonamido)-1H-indazol-7-yl)-6-(pyrimidin-2-yl)pyridin-2-yl)-2-(3,5-difluorophenyl)ethyl)-2-((3b-S,4aR)-5,5-difluoro-3-(trifluoromethyl)-3b,4,4a,5-tetrahydro-1H-cyclopropa[3,4]cyclopenta[1,2-c]pyrazol-1-yl)acetamide] showed a CC50 at 5 days in data set [1] of 17.4 µM. Also, in the data set with HIV-IIIb, the inhibition at 0.2 µM came out at 100% and the inhibition at 2 µM was 100%.
Compound `Cn1nc(NCC(F)F)c2cccc(-c3ccc(C#CC(C)(C)O)nc3[C@H](Cc3cc(F)cc(F)c3)NC(=O)Cn3nc(C(F)F)c4c3C(F)(F)[C@@H]3C[C@H]43)c21` [Compound 74D, N—((S)-1-(3-(3-((2,2-difluoroethyl)amino)-1-methyl-1H-indazol-7-yl)-6-(3-hydroxy-3-methylbut-1-yn-1-yl)pyridin-2-yl)-2-(3,5-difluorophenyl)ethyl)-2-((3b-S,4aR)-3-(difluoromethyl)-5,5-difluoro-3b,4,4a,5-tetrahydro-1H-cyclopropa[3,4]cyclopenta[1,2-c]pyrazol-1-yl)acetamide] yielded a CC50 at 5 days in data set [1] of 6.91 µM. Besides, in the data set with HIV-IIIb, the inhibition at 0.2 µM came out at 99% and the inhibition at 2 µM was 99%.
The compound `Cn1cnc(S(=O)(=O)Nc2nn(C)c3c(-c4ccc(C#CC(C)(C)O)nc4[C@H](Cc4cc(F)cc(F)c4)NC(=O)Cn4nc(C(F)(F)F)c5c4C(F)(F)[C@@H]4C[C@H]54)cccc23)c1` [Compound 47, 2-((3bS,4aR)-5,5-difluoro-3-(trifluoromethyl)-3b,4,4a,5-tetrahydro-1H-cyclopropa[3,4]cyclopenta[1,2-c]pyrazol-1-yl)-N—((S)-2-(3,5-difluorophenyl)-1-(6-(3-hydroxy-3-methylbut-1-yn-1-yl)-3-(1-methyl-3-(1-methyl-1H-imidazole-4-sulfonamido)-1H-indazol-7-yl)pyridin-2-yl)ethyl)acetamide] came in with a CC50 at 5 days in data set [1] of 21.4 µM. Further, in the data set on HIV-IIIb, the inhibition at 0.2 µM stood at 100% and the inhibition at 2 µM came out at 100%.
Turning to `Cn1nc(N)c2c(C#N)ccc(-c3ccc(C#CC(C)(C)O)nc3[C@H](Cc3cc(F)cc(F)c3)NC(=O)Cn3nc(C(F)F)c4c3C(F)(F)[C@@H]3C[C@H]43)c21` [Compound 77E, N—((S)-1-(3-(3-amino-4-cyano-1-methyl-1H-indazol-7-yl)-6-(3-hydroxy-3-methylbut-1-yn-1-yl)pyridin-2-yl)-2-(3,5-difluorophenyl)ethyl)-2-((3b-S,4aR)-3-(difluoromethyl)-5,5-difluoro-3b,4,4a,5-tetrahydro-1H-cyclopropa[3,4]cyclopenta[1,2-c]pyrazol-1-yl)acetamide], it took 11.8 µM to reach half-maximal cytotoxicity in data set [1] (CC50 at 5 days). Besides, in the data set on HIV-IIIb, the inhibition at 0.2 µM worked out at 96% and the inhibition at 2 µM was found to be 97%.
`CN(C)CC(=O)Nc1nn(C)c2c(-c3ccc(C#CC(C)(C)O)nc3[C@H](Cc3cc(F)cc(F)c3)NC(=O)Cn3nc(C(F)F)c4c3C(F)(F)[C@@H]3C[C@H]43)ccc(Cl)c12` [Compound 99B, N—((S)-1-(3-(4-chloro-3-(2-(dimethylamino)acetamido)-1-methyl-1H-indazol-7-yl)-6-(3-hydroxy-3-methylbut-1-yn-1-yl)pyridin-2-yl)-2-(3,5-difluorophenyl)ethyl)-2-((3b-S,4aR)-3-(difluoromethyl)-5,5-difluoro-3b,4,4a,5-tetrahydro-1H-cyclopropa[3,4]cyclopenta[1,2-c]pyrazol-1-yl)acetamide] returned a CC50 at 5 days in data set [1] of 6.37 µM. In the data set with HIV-IIIb, the inhibition at 0.2 µM was 100% and the inhibition at 2 µM worked out at 100%.
As to `Cn1nc(NS(C)(=O)=O)c2c(Cl)ccc(-c3ccc(C#CC(C)(O)CO)nc3[C@H](Cc3cc(F)cc(F)c3)NC(=O)Cn3nc(C(F)F)c4c3C(F)(F)[C@@H]3C[C@H]43)c21` (stereo partly drawn) [Compound 166, N-((1S)-1-(3-(4-chloro-1-methyl-3-(methylsulfonamido)-1H-indazol-7-yl)-6-(3,4-dihydroxy-3-methylbut-1-yn-1-yl)pyridin-2-yl)-2-(3,5-difluorophenyl)ethyl)-2-((3b-S,4aR)-3-(difluoromethyl)-5,5-difluoro-3b,4,4a,5-tetrahydro-1H-cyclopropa[3,4]cyclopenta[1,2-c]pyrazol-1-yl)acetamide], half-maximal cytotoxicity in data set [1] (CC50 at 5 days) was put at 24.4 µM. In the data set with HIV-IIIb, the inhibition at 0.2 µM amounted to 92% and the inhibition at 2 µM came to 92%.
`Cn1nc(NS(C)(=O)=O)c2cccc(-c3ccc(C#CC(C)(C)O)nc3[C@H](Cc3cc(F)cc(F)c3)NC(=O)Cn3nc(C(F)F)c4c3C3CC3CC4)c21` (stereo partly drawn) [Compound 43, 2-(3-(difluoromethyl)-5,5a,6,6a-tetrahydrocyclopropa[g]indazol-1(4H)-yl)-N—((S)-2-(3,5-difluorophenyl)-1-(6-(3-hydroxy-3-methylbut-1-yn-1-yl)-3-(1-methyl-3-(methylsulfonamido)-1H-indazol-7-yl)pyridin-2-yl)ethyl)acetamide]: in data set [1], it took 15.4 µM to reach half-maximal cytotoxicity (CC50 at 5 days). Moreover, in the data set with HIV-IIIb, the inhibition at 0.2 µM amounted to 100% and the inhibition at 2 µM is 100%.
